# Test results from ChEMBL document CHEMBL1201862, “PubChem BioAssay data set” (2004).
# Activity calls are given as the source filed them.
# Key:
# [1] = biological target: T1, Heat shock factor protein 1 (Mus musculus, UniProt P38532); experiment: HSF1 potentiators in luciferase reporter cells, confirmation, cell-based, NIH3T3, luminescence, dose retest (AID 435004); format: functional;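 also: stress induced by proteasome inhibitor MG132 added 30 min after compound; luciferase reporter driven by HSF1 response element in NIH3T3 cells; actives raise luminescence as potentiators of the MG132 stress response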
# T1 sequence (P38532 whole entry): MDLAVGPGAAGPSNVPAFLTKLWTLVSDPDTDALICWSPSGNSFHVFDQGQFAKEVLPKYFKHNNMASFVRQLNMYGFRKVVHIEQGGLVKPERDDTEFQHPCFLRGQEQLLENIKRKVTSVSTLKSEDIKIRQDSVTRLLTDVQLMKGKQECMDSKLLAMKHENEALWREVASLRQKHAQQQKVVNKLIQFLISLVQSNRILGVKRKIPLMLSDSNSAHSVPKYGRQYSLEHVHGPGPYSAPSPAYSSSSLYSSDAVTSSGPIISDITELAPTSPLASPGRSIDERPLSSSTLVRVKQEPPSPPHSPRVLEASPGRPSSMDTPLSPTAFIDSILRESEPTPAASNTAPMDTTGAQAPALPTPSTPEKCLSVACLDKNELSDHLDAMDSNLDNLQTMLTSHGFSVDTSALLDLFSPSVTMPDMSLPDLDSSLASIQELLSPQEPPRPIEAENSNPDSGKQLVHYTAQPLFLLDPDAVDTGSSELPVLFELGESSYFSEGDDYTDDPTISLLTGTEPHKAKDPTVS
# [2] = biological target: T2, High affinity choline transporter 1 (Homo sapiens, UniProt Q9GZV3); experiment: CHT inhibitors, dose response, cell-based, 5-point CRC, membrane potential dye (AID 504840); format: functional
# T2 sequence (Q9GZV3 whole entry): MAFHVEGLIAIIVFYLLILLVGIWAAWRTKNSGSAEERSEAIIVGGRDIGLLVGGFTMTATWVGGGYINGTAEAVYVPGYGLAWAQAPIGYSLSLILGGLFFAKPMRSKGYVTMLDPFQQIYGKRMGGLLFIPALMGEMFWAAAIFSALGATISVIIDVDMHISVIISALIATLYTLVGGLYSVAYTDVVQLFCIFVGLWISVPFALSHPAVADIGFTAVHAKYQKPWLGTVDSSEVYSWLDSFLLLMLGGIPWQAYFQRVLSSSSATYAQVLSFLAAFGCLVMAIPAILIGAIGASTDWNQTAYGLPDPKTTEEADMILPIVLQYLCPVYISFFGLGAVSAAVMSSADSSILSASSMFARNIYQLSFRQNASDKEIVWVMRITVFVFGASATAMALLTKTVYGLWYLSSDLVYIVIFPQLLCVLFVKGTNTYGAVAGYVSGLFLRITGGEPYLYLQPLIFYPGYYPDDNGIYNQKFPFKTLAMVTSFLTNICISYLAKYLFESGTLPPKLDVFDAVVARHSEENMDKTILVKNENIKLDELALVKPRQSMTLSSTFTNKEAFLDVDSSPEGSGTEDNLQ
# cells [3] = format: functional, cell-based
# [4] = biological target: T3, Microphthalmia-associated transcription factor (Homo sapiens, UniProt O75030); experiment: TRPM1 promoter luciferase signal decrease, dose response, MITF inhibitor project, cell-based, SK-MEL-5, cherry-picked, set 3 (AID 493073); format: functional
# T3 sequence (O75030 whole entry): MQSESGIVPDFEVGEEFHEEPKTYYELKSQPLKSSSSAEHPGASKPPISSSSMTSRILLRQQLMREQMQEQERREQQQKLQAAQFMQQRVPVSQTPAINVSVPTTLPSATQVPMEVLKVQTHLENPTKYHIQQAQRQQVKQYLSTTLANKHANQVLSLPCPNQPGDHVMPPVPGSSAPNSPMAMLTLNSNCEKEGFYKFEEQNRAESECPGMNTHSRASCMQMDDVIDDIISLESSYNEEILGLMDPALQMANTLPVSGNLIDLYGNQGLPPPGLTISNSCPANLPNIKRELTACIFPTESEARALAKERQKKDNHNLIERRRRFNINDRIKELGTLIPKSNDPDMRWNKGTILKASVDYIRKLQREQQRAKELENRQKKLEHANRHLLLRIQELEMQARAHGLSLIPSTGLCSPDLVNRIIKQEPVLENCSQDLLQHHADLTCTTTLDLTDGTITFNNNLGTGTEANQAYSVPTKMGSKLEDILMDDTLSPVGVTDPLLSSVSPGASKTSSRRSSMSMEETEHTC
# cells [5] = format: functional, cell-based; remark: listed apart in the source
# [6] = LGR2 antagonists, dose response, cell-based, HEK293, CRE-luciferase reporter, cherry pick, set 2 (AID 743343); format: functional;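 also: transfected cells were stimulated with diluted bursicon conditioned medium after compound addition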
# [7] = MC4R antagonists, dose response, counter-screen for LGR2 antagonist project, cell-based, plate reader, cherry pick (AID 743444); format: functional;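 also: transfected HEK 293 cells stimulated with alpha-MSH peptide; potency of inhibitors of the alpha-MSH evoked signal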
# [8] = biological target: Voltage-dependent T-type calcium channel subunit alpha-1H (Homo sapiens, UniProt O95180); format: functional;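 also: channel activity triggered by adding a high calcium stimulation buffer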
# Voltage-dependent T-type calcium channel subunit alpha-1H, sequence (O95180 whole entry, the tested form may be a part): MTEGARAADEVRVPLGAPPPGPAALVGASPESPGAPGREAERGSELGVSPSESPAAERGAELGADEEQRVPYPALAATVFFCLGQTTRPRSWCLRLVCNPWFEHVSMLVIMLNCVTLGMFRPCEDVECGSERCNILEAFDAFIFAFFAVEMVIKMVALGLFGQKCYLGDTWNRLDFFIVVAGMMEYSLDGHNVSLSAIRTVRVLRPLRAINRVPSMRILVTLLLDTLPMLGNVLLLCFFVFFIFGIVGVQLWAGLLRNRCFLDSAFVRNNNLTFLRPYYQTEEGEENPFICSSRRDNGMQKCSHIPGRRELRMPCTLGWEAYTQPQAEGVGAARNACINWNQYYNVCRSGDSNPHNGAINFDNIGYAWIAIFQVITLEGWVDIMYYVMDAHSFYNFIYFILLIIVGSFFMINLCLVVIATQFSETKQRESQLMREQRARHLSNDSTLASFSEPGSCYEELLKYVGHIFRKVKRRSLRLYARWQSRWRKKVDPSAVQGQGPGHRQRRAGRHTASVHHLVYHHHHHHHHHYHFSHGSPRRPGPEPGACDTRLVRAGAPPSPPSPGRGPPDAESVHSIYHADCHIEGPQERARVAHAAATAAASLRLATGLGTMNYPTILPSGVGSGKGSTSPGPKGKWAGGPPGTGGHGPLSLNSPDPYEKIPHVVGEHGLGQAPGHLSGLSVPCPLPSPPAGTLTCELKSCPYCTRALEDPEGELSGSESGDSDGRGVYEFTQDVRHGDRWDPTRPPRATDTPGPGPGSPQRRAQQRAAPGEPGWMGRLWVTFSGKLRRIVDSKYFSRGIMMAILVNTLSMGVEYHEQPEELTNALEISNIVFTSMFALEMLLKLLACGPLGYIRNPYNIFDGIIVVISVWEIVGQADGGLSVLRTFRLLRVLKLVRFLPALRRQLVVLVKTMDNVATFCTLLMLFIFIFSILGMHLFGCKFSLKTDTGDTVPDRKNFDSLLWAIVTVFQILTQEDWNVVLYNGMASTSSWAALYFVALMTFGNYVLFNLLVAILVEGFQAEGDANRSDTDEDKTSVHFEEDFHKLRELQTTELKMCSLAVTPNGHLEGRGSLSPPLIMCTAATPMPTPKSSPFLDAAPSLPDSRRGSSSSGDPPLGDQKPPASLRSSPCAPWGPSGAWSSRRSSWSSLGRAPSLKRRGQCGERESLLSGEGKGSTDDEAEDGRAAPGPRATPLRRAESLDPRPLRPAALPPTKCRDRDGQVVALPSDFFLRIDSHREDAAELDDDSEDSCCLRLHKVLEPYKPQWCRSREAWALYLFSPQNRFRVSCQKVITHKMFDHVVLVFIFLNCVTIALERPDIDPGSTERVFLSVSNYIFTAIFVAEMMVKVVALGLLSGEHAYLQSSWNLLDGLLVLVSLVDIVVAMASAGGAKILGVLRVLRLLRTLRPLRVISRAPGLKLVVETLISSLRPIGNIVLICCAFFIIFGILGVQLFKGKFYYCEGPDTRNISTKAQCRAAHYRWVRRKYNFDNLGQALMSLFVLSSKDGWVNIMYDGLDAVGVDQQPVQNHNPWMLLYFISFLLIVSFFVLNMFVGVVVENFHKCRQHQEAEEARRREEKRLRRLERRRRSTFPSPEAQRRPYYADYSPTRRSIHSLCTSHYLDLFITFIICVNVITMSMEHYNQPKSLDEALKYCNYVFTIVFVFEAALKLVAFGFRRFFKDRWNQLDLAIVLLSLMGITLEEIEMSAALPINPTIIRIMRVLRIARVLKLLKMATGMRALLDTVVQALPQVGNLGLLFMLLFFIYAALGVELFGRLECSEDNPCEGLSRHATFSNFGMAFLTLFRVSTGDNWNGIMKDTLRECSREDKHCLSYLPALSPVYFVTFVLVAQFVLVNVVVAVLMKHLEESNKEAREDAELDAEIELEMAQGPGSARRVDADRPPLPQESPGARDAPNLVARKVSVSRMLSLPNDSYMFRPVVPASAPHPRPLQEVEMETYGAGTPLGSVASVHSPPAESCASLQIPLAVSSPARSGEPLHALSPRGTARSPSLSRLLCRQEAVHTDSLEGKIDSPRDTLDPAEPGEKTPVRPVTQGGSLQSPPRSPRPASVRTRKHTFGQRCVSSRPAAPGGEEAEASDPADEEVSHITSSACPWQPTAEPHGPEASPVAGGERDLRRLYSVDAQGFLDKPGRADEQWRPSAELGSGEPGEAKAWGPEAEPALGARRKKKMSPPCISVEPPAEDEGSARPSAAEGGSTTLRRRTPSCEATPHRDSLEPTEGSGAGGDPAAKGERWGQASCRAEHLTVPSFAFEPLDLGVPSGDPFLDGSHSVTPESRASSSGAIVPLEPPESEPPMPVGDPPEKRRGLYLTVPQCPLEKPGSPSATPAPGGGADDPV
# [9] = biological target: T4, RNA-binding protein pos-1 (Caenorhabditis elegans, UniProt G5EF15); experiment: inhibitors of POS-1/mex-3 RNA binding, dose response, biochemical, fluorescence polarization (AID 1964);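 also: purified POS-1 fused to maltose binding protein made in E. coli; potency of compounds blocking POS-1 binding to fluorescent RNA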
# T4 sequence (G5EF15 whole entry): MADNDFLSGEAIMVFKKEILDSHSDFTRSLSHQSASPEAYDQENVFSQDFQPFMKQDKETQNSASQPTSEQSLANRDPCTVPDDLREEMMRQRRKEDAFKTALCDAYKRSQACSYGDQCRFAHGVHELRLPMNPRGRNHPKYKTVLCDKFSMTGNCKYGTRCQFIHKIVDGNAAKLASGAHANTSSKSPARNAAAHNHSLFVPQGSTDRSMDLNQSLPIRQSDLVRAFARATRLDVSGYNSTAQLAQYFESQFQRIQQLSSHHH
# [10] = biological target: T5, Zinc finger protein mex-5 (Caenorhabditis elegans, UniProt Q9XUB2); experiment: MEX-5/TCR-2 RNA interaction inhibitors, dose response, biochemical, C. elegans, fluorescence polarization (AID 1960)
# T5 sequence (Q9XUB2 whole entry): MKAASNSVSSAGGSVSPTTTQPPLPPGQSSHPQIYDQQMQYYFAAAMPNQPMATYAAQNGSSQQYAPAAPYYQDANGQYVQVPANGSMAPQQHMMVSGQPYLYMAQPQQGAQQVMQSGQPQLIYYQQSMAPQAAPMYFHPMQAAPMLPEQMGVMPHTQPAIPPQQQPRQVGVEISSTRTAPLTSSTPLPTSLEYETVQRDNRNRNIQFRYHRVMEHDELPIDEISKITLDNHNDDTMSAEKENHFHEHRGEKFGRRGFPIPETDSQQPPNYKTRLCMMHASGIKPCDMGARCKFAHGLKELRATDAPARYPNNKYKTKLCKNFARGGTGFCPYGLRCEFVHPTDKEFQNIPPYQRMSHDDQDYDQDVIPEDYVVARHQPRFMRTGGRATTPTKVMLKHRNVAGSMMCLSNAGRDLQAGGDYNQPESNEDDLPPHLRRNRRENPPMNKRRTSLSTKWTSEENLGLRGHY
# Protein RecA = biological target: T6, Protein RecA (Mycobacterium tuberculosis, UniProt P9WHJ3); experiment: Fluorescence Cell-Free Homogeneous Dose Retest to Identify Inhibitors of RecA-Intein Splicing Activity. [Related pubchem assays (depositor defined):AID2097, AID2223, AID489010, AID492950]; format: functional
# T6 sequence (P9WHJ3 whole entry): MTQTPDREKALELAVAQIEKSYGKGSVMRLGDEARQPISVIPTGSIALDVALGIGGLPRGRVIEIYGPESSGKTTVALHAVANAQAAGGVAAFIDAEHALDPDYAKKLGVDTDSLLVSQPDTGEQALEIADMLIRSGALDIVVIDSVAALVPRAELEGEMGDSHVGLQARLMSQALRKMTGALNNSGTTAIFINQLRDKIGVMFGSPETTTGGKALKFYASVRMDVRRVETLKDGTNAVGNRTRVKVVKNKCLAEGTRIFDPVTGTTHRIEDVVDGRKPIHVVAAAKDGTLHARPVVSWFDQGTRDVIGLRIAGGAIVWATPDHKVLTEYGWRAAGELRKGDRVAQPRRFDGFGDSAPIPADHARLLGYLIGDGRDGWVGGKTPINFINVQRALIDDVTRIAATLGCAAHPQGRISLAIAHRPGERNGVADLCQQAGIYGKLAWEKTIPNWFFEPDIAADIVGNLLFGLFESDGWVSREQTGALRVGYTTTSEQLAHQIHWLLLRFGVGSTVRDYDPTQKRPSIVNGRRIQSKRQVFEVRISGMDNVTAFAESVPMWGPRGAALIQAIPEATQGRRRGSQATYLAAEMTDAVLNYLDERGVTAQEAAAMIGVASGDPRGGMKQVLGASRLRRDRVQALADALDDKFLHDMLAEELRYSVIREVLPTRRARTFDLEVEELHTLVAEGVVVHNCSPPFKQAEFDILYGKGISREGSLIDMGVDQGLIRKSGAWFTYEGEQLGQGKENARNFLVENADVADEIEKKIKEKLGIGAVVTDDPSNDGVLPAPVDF
# [11] = Luminescence Cell-Based Dose Retest to Confirm Inhibitors of Cancer Stem Cells. [Related pubchem assays (depositor defined):AID2717, AID2721]; format: functional; settings: Homo sapiens
# [12] = biological target: T7, Replicative DNA helicase DnaB (Mycobacterium tuberculosis, UniProt P9WMR3); experiment: DnaB intein splicing inhibitors, dose response, biochemical, cell-free fluorescence (AID 449749); format: functional
# T7 sequence (P9WMR3 whole entry): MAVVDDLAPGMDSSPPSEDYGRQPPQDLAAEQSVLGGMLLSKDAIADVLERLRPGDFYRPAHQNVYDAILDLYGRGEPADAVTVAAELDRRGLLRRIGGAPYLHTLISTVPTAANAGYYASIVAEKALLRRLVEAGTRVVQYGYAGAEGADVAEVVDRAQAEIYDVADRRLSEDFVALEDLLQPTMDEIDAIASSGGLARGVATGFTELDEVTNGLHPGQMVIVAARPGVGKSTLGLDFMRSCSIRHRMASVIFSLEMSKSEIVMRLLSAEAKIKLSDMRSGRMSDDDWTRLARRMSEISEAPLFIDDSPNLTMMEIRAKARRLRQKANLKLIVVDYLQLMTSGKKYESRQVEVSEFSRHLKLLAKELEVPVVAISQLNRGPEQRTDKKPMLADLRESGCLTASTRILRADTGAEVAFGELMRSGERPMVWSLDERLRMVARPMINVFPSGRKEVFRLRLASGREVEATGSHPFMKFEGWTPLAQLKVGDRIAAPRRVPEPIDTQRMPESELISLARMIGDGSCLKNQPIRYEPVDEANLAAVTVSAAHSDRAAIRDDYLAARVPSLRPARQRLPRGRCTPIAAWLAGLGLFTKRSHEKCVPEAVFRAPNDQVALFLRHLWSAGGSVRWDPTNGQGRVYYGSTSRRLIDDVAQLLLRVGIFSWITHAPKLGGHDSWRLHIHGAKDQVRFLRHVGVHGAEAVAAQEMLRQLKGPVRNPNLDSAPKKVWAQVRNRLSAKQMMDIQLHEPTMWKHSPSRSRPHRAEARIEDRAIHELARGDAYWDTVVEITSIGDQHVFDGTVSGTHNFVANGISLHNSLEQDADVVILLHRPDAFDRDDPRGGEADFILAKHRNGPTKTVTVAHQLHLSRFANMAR
# Cytochrome P450 2D6 = Cytochrome P450 2D6 (Homo sapiens, UniProt P10635);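 also: CYP2D6 member of a cytochrome P450 panel assay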
# Cytochrome P450 2D6, sequence (P10635 whole entry): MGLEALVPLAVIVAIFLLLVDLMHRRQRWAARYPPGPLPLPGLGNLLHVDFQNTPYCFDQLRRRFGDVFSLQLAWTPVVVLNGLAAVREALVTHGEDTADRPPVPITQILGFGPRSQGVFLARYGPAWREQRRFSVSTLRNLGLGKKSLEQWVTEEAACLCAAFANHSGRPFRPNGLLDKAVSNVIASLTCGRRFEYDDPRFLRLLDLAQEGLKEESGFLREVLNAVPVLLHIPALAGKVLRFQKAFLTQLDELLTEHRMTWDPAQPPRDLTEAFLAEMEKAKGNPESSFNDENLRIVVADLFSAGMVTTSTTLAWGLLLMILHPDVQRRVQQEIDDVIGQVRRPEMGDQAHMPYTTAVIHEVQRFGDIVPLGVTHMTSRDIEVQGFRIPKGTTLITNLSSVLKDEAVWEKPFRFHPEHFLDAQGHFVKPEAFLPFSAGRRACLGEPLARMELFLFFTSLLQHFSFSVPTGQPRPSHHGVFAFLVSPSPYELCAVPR
smiles,measurement,setting,value
COc1ccccc1N1CCN(C(=O)C(CC(C)C)NC(=O)C2CCCCC2)CC1 (configuration not stated),EC50,[1],> 260 µM (inactive)
CCc1nnc(NS(=O)(=O)c2ccc(NC(=O)c3cccc(Br)c3)cc2)s1,IC50,[2],13.2 µM (active)
CCN(CC)S(=O)(=O)c1cccc(C(=O)N/N=C(\C)c2ccc(O)cc2O)c1,EC50,cells [3],> 350 µM (not active)
same,AC50,[4],3.74 µM (active)
same,EC50,cells [5],11.7 µM (active)
O=S(=O)(c1ccc(Oc2ccccc2)cc1)N1CCOCC1,EC50,[1],> 260 µM (inactive)
CN(Cc1ccccc1)c1nc(N)nc(Cl)c1C=O,IC50,[2],15.1 µM (active)
O=C(CCCc1ccccc1)Nc1cccc(C(=O)O)c1,AC50,[6],2.04 µM (active)
same,AC50,[4],4.42 µM (active)
same,AC50,[7],1.91 µM (active)
CCc1ccccc1NC(=O)c1ccc(CN2CCC(Cc3ccccc3)CC2)cc1,EC50,[8],0.111 µM (active)
same,IC50,[2],13.8 µM (active)
N=C(N)NS(=O)(=O)c1ccc(NC(=S)NC(=O)/C=C/c2cccs2)cc1,EC50,[9],> 300 µM (not active)
same,EC50,[10],> 300 µM (not active)
NC(=O)C1(N2CCCCC2)CCN(Cc2nc(-c3cccs3)no2)CC1,EC50,[9],> 300 µM (not active)
same,EC50,[10],> 300 µM (not active)
COc1ccc(S(=O)(=O)Nc2cc3c4c(oc3c3ccccc23)CCCC4=O)cc1,EC50,[1],> 260 µM (inactive)
C/C(=N\NC1=NCCN1)c1ccccc1,IC50,[2],12.9 µM (active)
COC(=O)[C@@H]1C[C@]2(OC(=O)c3ccccc3)C=CC(=O)C[C@@H]2N1C(=O)OCc1ccccc1,EC50,Protein RecA,10.5 µM (active)
same,AC50,[11],6.36 µM (active)
same,AC50,[4],14 µM (active)
same,EC50,[1],18.5 µM (active)
same,AC50,[12],8.72 µM (active)
CCCCCNC(=O)C1CCC(Cn2c(=S)[nH]c3ccccc3c2=O)CC1 (configuration not stated),EC50,[1],> 260 µM (inactive)
CN1C(=O)c2ccccc2NC(=O)[C@]12O[C@@H]2c1cccc(O)c1,EC50,[9],4.13 µM (active)
same,EC50,[10],35.1 µM (active)
Cc1ccc(CNC(=O)Cn2ccc3ccccc3c2=O)o1,EC50,[1],> 260 µM (inactive)
COc1ccc(OC)c(NC(=O)CNC(c2ccccc2)c2ccccc2)c1,EC50,[1],> 260 µM (inactive)
CC1CCN(S(=O)(=O)c2ccc3c(c2)N(CC(=O)NCCCN2C(C)CCCC2C)C(=O)CO3)CC1 (configuration not stated),IC50,[2],13.5 µM (active)
Cc1ccc(NCC(=O)N/N=C\c2ccc([N+](=O)[O-])o2)cc1,AC50,Cytochrome P450 2D6,15.8 µM (inconclusive)
same,AC50,[4],19.1 µM (active)
CS(=O)(=O)c1ccc(Cl)c(C(=O)NCC2CCCCC2)c1,EC50,[1],> 260 µM (inactive)
